Laboratory results reported in ChEMBL document CHEMBL1201862, “PubChem BioAssay data set” (2004).
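Test compounds were applied to cells in 96-well plates for 48 hours at 5 doses. GI50: concentration for 50% inhibition of growth.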 Activity calls are given as the source filed them. Cut-off read from the data, not from the text of the source: active = GI50 up to about 1.1 µM and inactive = higher.

What was measured:
Experiment in all cases: NCI-60 cell line screen, 48 h
LOX IMVI = system: LOX IMVI
HOP-62 = system: HOP-62
ACHN = system: ACHN
MCF7 = system: MCF7
IGROV-1 = system: IGROV-1
M14 = system: M14
SW-620 = system: SW-620
HL-60 = system: HL-60
NCI-H460 = system: NCI-H460
KM12 = system: KM12
COLO 205 = system: COLO 205
UACC-62 = system: UACC-62
UO-31 = system: UO-31
M19-MEL = system: M19-MEL
OVCAR-5 = system: OVCAR-5
SF-539 = system: SF-539
SK-MEL-5 = system: SK-MEL-5
MDA-MB-231 = system: MDA-MB-231
SNB-78 = system: SNB-78
PC-3 = system: PC-3

For `CC(=O)OC(C)C1C2=C(C(=O)CC1(C)O)C(=O)c1c(ccc(-c3ccc4c(c3O)C(=O)C3=C(C4=O)C(C(C)OC(C)=O)C(C)(O)CC3=O)c1O)C2=O` (centres undefined), the GI50 (LOX IMVI) was 1.42 µM (inactive), the GI50 (HOP-62) was 18.5 µM (inactive) and the GI50 (ACHN) was 1.73 µM (inactive). The GI50 (MCF7) was 1.53 µM (inactive), the GI50 (IGROV-1) was 9.12 µM (inactive) and the GI50 (M14) was 2.11 µM (inactive). The GI50 (SW-620) was 0.667 µM (active), the GI50 (HL-60) was 0.398 µM (active) and the GI50 (NCI-H460) was 6.58 µM (inactive). For the same compound, the GI50 (KM12) was 3.19 µM (inactive), the GI50 (COLO 205) was 0.692 µM (active) and the GI50 (UACC-62) was 1.69 µM (inactive). The GI50 (UO-31) was 3.35 µM (inactive), the GI50 (M19-MEL) was 1.36 µM (inactive) and the GI50 (OVCAR-5) was 5.97 µM (inactive). The GI50 (SF-539) was 1.92 µM (inactive), the GI50 (SK-MEL-5) was 3.19 µM (inactive) and the GI50 (MDA-MB-231) was 2.42 µM (inactive). The GI50 (SNB-78) was 3.18 µM (inactive) and the GI50 (PC-3) was 3.1 µM (inactive).

`CCCCCCCCCCCCCC(=O)CBr` was tested, and the GI50 (LOX IMVI) was 3.83 µM (inactive), the GI50 (HOP-62) was 21.5 µM (inactive) and the GI50 (ACHN) was 15 µM (inactive). For the same compound, the GI50 (MCF7) was 13.4 µM (inactive), the GI50 (IGROV-1) was 5.79 µM (inactive) and the GI50 (M14) was 10.8 µM (inactive). The GI50 (SW-620) was 12 µM (inactive), the GI50 (HL-60) was 1.03 µM (active) and the GI50 (NCI-H460) was 18 µM (inactive). For the same compound, the GI50 (KM12) was 12.1 µM (inactive), the GI50 (COLO 205) was 14.9 µM (inactive) and the GI50 (UACC-62) was 9.79 µM (inactive). For the same compound, the GI50 (UO-31) was 8.93 µM (inactive), the GI50 (M19-MEL) was 9.25 µM (inactive) and the GI50 (OVCAR-5) was 22.1 µM (inactive). For the same compound, the GI50 (SF-539) was 13.2 µM (inactive), the GI50 (SK-MEL-5) was 12.1 µM (inactive) and the GI50 (MDA-MB-231) was 16.3 µM (inactive). The GI50 (SNB-78) was 14.2 µM (inactive) and the GI50 (PC-3) was 3.62 µM (inactive).

For `C[N+](C)(C)CC1CCC/C1=N/O` (centres undefined), the GI50 (LOX IMVI) was 20.6 µM (inactive), the GI50 (HOP-62) was > 100 µM (inactive) and the GI50 (ACHN) was > 100 µM (inactive). For the same compound, the GI50 (IGROV-1) was > 100 µM (inactive), the GI50 (M14) was > 100 µM (inactive) and the GI50 (SW-620) was 2.62 µM (inactive). The GI50 (HL-60) was 20.1 µM (inactive), the GI50 (NCI-H460) was 50.4 µM (inactive) and the GI50 (KM12) was > 100 µM (inactive). For the same compound, the GI50 (COLO 205) was 21.5 µM (inactive), the GI50 (UACC-62) was > 100 µM (inactive) and the GI50 (UO-31) was > 100 µM (inactive). The GI50 (M19-MEL) was 41 µM (inactive), the GI50 (OVCAR-5) was > 100 µM (inactive) and the GI50 (SF-539) was > 100 µM (inactive). The GI50 (SK-MEL-5) was > 100 µM (inactive) and the GI50 (SNB-78) was > 100 µM (inactive).

For `C/C(=C\COc1ccc2ccc(=O)oc2c1)C1=CC(=O)C(C)(C)O1` [GEIPARVARIN], the GI50 (LOX IMVI) was 1.89 µM (inactive), the GI50 (HOP-62) was 5.47 µM (inactive) and the GI50 (ACHN) was 4.39 µM (inactive). For the same compound, the GI50 (IGROV-1) was 4.63 µM (inactive), the GI50 (M14) was 4.04 µM (inactive) and the GI50 (SW-620) was 3.43 µM (inactive). The GI50 (HL-60) was 2.29 µM (inactive), the GI50 (COLO 205) was 4.14 µM (inactive) and the GI50 (UACC-62) was 3.94 µM (inactive). The GI50 (UO-31) was 6.11 µM (inactive), the GI50 (M19-MEL) was 4.61 µM (inactive) and the GI50 (OVCAR-5) was 10.2 µM (inactive). For the same compound, the GI50 (SF-539) was 2.17 µM (inactive), the GI50 (SK-MEL-5) was 3.45 µM (inactive) and the GI50 (MDA-MB-231) was 5.18 µM (inactive). For the same compound, the GI50 (SNB-78) was 4.15 µM (inactive) and the GI50 (PC-3) was 6.58 µM (inactive).
